Laboratory results reported in patent publication US20050019742A1, “Methods for assessment of platelet aggregation” (priority 2002, published 2005).
Where a SMILES comes first, the peptide text is derived from it. Bridges are numbered along the chain shown (N, C = ends). [ ]: non-standard residue; d: D form. hArg = N=C(N)NCCCC[C@H](N)C(=O)O; Mpa = O=C(O)CCS

B1: Reopro: antibody based GPIIbIIIa antagonist (antibody, chains of the INN, looked up, V domains shown)
VH: EVQLQQSGTVLARPGASVKMSCEASGYTFTNYWMHWVKQRPGQGLEWIGAIYPGNSDTSYIQKFKGKAKLTAVTSTTSVYMELSSLTNEDSAVYYCTLYDGYYVFAYWGQGTLVTVSA
VL: EIVLTQSPVTLSVTPGDSVSLSCRASRDISNNLHWFQQTSHESPRLLIKYASQSMSGIPSRFSGSGSGTDFTLSINSVETEDFGMYFCQQTNSWPYTFGGGTKLEIK
modifications: Fab
notes: antibody based GPIIbIIIa antagonist

Tests used:
platelet aggregation [1] = experiment: ICHOR/Plateletworks whole blood platelet aggregation (platelet count), PPACK anticoagulant, ADP agonist; type: cell-based, human; conditions: for platelet inhibition measured by ICHOR/Plateletworks: samples in which Ultegra measures inhibition of 80% or greater, average lower end of a range reaching greater than 80%, PPACK whole blood, ADP 20 μM
Protocol: Whole blood platelet aggregation was performed using a procedure modified from that outlined in the Helena Plateletworks® brochure. PPACK anticoagulant was used instead of citrate due to the well-documented effect of citrate overestimating the level of platelet inhibition by all currently approved GPIIb-IIIa antagonists (Phillips et al., “Effect of Ca^++ on Integrilin™ GPIIb-IIIa Interactions: Enhanced GPIIb-IIIa Binding and Inhibition of Platelet Aggregation by Reductions in the Concentration of Ionized Calcium in Plasma Anticoagulated with Citrate,” Circulation 96:1488-1494 (1997); Nannizzi-Alaimo et al., “Effect of Citrate Anticoagulation and Platelet Agonist Concentration on the Inhibitory Activities of GPIIb-IIIa Antagonists,” Circulation 100:1710 (1999); Kereiakes et al., “Differential Effects of Citrate Versus PPACK Anticoagulation on Measured Platelet Inhibition by Abciximab, Eptifibatide and Tirofiban,” J. Thromb. Thrombolysis 12:123-127 (2001); Jennings et al., “The Pharmacodynamics of Parenteral Glycoprotein IIb/IIIa Inhibitors,” J. Interv. Cardiol. 15(1):45-60 (2002), each of which is hereby incorporated by reference in its entirety). For this assay, 1.0 ml of PPACK anticoagulated whole-blood was mixed with increasing concentrations of eptifibatide or tirofiban and incubated for at least 2 minutes. After addition of ADP (20 μM), the tube was inverted 15-20 times to ensure mixing, and the platelet count was performed immediately (test sample). A baseline tube was also drawn and handled exactly as the antagonist sample tube minus the addition of agonist. A platelet count was also performed on blood collected into EDTA per the manufacturer's instructions. Percent inhibition of platelet aggregation was obtained from the platelet inhibition/aggregation calculation wheel provided with Plateletworks®.
When testing samples containing Reopro, the ICHOR instrument never achieves more than 60% inhibition of aggregation. […]

platelet aggregation [2] = experiment: Light transmission aggregometry (LTA) in PPACK platelet rich plasma, ADP-induced aggregation; type: cell-based, human; conditions: samples in which Ultegra measures inhibition of 80% or greater, average lower end of a range reaching greater than 80%, ADP 20 μM
Protocol: Sufficient blood volume was collected to complete matched comparisons for each donor in all three assays. Using a 19 g butterfly needle, blood was collected by venipuncture into a plastic syringe and transferred to a tube containing PPACK anticoagulant (0.3 mM final concentration) or into PPACK vacuettes provided by Ultegra®. An EDTA baseline tube was also drawn per Plateletworks® recommendation. One 10 mL sample of PPACK blood was centrifuged at 135 g for 15 minutes to obtain platelet rich plasma (“PRP”) for use in traditional light transmission aggregometry. The residual blood from this tube was centrifuged at 1500 g for 15 minutes to obtain platelet poor plasma (“PPP”). PRP was diluted to 250,000/mm^3 with autologous PPP. Diluted PRP (0.5 ml) was added to an aggregation cuvette and placed into the 37° C. aggregation chamber. Eptifibatide (125-4000 nM) or tirofiban (25-200 nM) was added to PRP, incubated for at least two minutes. 50 μl ADP (20 μM final concentration) was added to 0.45 ml PRP and the aggregation response was recorded. A baseline aggregation response (no antagonist present) was determined for each donor. Percent aggregation was calculated at the point of maximum light transmission obtained within five minutes. Percent inhibition of aggregation (IPA) was calculated using the following formula: [formula]

| Molecule | platelet inhibition measured by ICHOR/Plateletworks (platelet aggregation [1]) [%] | platelet inhibition measured by LTA (platelet aggregation [2]) [%] | inhibition of aggregation (maximum achieved on ICHOR instrument) (platelet aggregation [1]; samples containing Reopro, microaggregates are counted as aggregation) [%] |
| --- | --- | --- | --- |
| CCCCS(=O)(=O)N[C@@H](Cc1ccc(OCCCCC2CCNCC2)cc1)C(=O)O [tirofiban] | ≥ 35 | ≥ 35 |  |
| N=C(N)NCCCC[C@@H]1NC(=O)CCSSC[C@@H](C(N)=O)NC(=O)[C@@H]2CCCN2C(=O)[C@H](Cc2c[nH]c3ccccc23)NC(=O)[C@H](CC(=O)O)NC(=O)CNC1=O [eptifibatide] ([Mpa][hArg]GDWPC-NH2; disulfide 1-7) | ≥ 30 | ≥ 30 |  |
| B1 |  |  | ≤ 60 |
